What was measured:
[1] = system: MDA-MB-231, human breast cancer cells; assay: Proliferation assay MDA-MB-231 (crystal violet, 4 days); format: cell-based; conditions: Homo sapiens, MDA-MB-231, 96 h, MDA-MB-231 cells, median, read-out: Prolif-MDA MB-231, IC50-[mol/l] (median)
Method in brief: (§1)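 IC50 from a 4-parameter fit of crystal violet absorbance (595 nm), scaled between the day-of-dosing plate (0%) and vehicle cells (100%). MDA-MB-231 or CAL-120 cells were treated for 4 days with 0.01–10 micromol/L compound in 0.1% DMSO after 24 h attachment.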

[2] = system: CAL-120, human breast adenocarcinoma cells; assay: Proliferation assay CAL-120 (crystal violet, 4 days); format: cell-based; conditions: Homo sapiens, CAL-120, 96 h, CAL-120 cells, median, read-out: Prolif-CAL-120, IC50-[mol/l] (median)
Method in brief: as §1

[3] = system: BRCA1 mRNA expression in MDA-MB-231 cells; assay: qRT-PCR assay: BRCA1 mRNA expression in MDA-MB-231; format: cell-based, human; conditions: Homo sapiens, MDA-MB-231, Inhibition of BRCA1 mRNA expression in MDA-MB-231 cells; median; read-out: RTqPCR-MDA-MB-231, IC50, BRCA1 (median)
Method in brief: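 BRCA1 transcript by RT-qPCR relative to GAPDH, from 600 ng RNA converted to cDNA. MDA-MB-231 cells plated at 200,000/well received test compound continuously for 24 h, starting 24 h post-seeding.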

IC50 [1] [nM]	IC50 [2] [nM]	IC50 [3] [nM]	Compound
11.8	10.9	3.78	FC(F)(F)c1cnn2c(NCc3nc4cc(Cl)c(Cl)cc4[nH]3)nc(N3CCOCC3)nc12 [Example 332, N-[(5,6-dichloro-1H-benzimidazol-2-yl)methyl]-2-(morpholin-4-yl)-8-(trifluoromethyl)pyrazolo[1,5-a][1,3,5]triazin-4-amine]
4.76	2.87	9.97	CN(CC(C)(C)O)c1nc(NCc2nc3cc(F)c(F)cc3[nH]2)n2ncc(C3CC3)c2n1 [Example 319, 1-[(8-cyclopropyl-4-{[(5,6-difluoro-1H-benzimidazol-2-yl)methyl]amino}pyrazolo[1,5-a][1,3,5]triazin-2-yl)(methyl)amino]-2-methylpropan-2-ol]
116	79.3	–	CN1CCN(c2nc(NCc3nc4cc(OC(F)(F)F)ccc4[nH]3)n3ncc(Br)c3n2)CC1 [Example 377, 8-bromo-2-(4-methylpiperazin-1-yl)-N-{[5-(trifluoromethoxy)-1H-benzimidazol-2-yl]methyl}pyrazolo[1,5-a][1,3,5]triazin-4-amine]
96.4	41.5	–	CN(CC(C)(C)O)c1nc(NCc2nc3cc(OC(F)(F)F)ccc3[nH]2)n2ncc(Br)c2n1 [Example 378, 1-{[8-bromo-4-({[5-(trifluoromethoxy)-1H-benzimidazol-2-yl]methyl}amino)pyrazolo[1,5-a][1,3,5]triazin-2-yl](methyl)amino}-2-methylpropan-2-ol]
8.85	7.97	3.56	FC(F)(F)c1ccc2[nH]c(CNc3nc(N4CCOCC4)nc4c(C5CC5)cnn34)nc2c1 [Example 322, 8-cyclopropyl-2-(morpholin-4-yl)-N-{[5-(trifluoromethyl)-1H-benzimidazol-2-yl]methyl}pyrazolo[1,5-a][1,3,5]triazin-4-amine]
176	29.8	–	CN1CCCN(c2nc(NCc3nc4ccccc4[nH]3)n3ncc(Br)c3n2)CC1 [Example 390, N-[(1H-benzimidazol-2-yl)methyl]-8-bromo-2-(4-methyl-1,4-diazepan-1-yl)pyrazolo[1,5-a][1,3,5]triazin-4-amine]
4.28	2.94	2.16	Fc1c(Cl)ccc2[nH]c(CNc3nc(N4CCOCC4)nc4c(Br)cnn34)nc12 [Example 372, 8-bromo-N-[(5-chloro-4-fluoro-1H-benzimidazol-2-yl)methyl]-2-(morpholin-4-yl)pyrazolo[1,5-a][1,3,5]triazin-4-amine]
3.44	3.05	2.83	CN(CC(C)(C)O)c1nc(NCc2nc3cc(C(F)(F)F)ccc3[nH]2)n2ncc(Br)c2n1 [Example 345, 1-{[8-bromo-4-({[5-(trifluoromethyl)-1H-benzimidazol-2-yl]methyl}amino)pyrazolo[1,5-a][1,3,5]triazin-2-yl](methyl)amino}-2-methylpropan-2-ol]
15.2	5.69	3.28	CN(CC(C)(C)O)c1nc(NCc2nc3c(F)c(F)ccc3[nH]2)n2ncc(Cl)c2n1 [Example 359, 1-[(8-chloro-4-{[(4,5-difluoro-1H-benzimidazol-2-yl)methyl]amino}pyrazolo[1,5-a][1,3,5]triazin-2-yl)(methyl)amino]-2-methylpropan-2-ol]
84.1	31.4	–	CC[C@@H](CO)Nc1nc(NCc2nc3ccccc3[nH]2)n2ncc(Br)c2n1 [Example 367, (2S)-2-[(4-{[(1H-benzimidazol-2-yl)methyl]amino}-8-bromopyrazolo[1,5-a][1,3,5]triazin-2-yl)amino]butan-1-ol]
332	52.7	–	CN1CCC(Oc2nc(NCc3nc4ccccc4[nH]3)n3ncc(Br)c3n2)CC1 [Example 389, N-[(1H-benzimidazol-2-yl)methyl]-8-bromo-2-[(1-methylpiperidin-4-yl)oxy]pyrazolo[1,5-a][1,3,5]triazin-4-amine]
–	–	165	Cc1[nH]c(CNc2nc(N3CCOCC3)nc3c(Br)cnn23)nc1-c1ccccc1 [Example 27, 8-bromo-N-[(5-methyl-4-phenyl-1H-imidazol-2-yl)methyl]-2-(morpholin-4-yl)pyrazolo[1,5-a][1,3,5]triazin-4-amine]
142	68.6	–	FC(F)(F)Oc1cccc2[nH]c(CNc3nc(N4CCOCC4)nc4c(Br)cnn34)nc12 [Example 375, 8-bromo-2-(morpholin-4-yl)-N-{[4-(trifluoromethoxy)-1H-benzimidazol-2-yl]methyl}pyrazolo[1,5-a][1,3,5]triazin-4-amine]
173	94.9	–	CC[C@H](CO)Nc1nc(NCc2nc3ccccc3[nH]2)n2ncc(Br)c2n1 [Example 368, (2R)-2-[(4-{[(1H-benzimidazol-2-yl)methyl]amino}-8-bromopyrazolo[1,5-a][1,3,5]triazin-2-yl)amino]butan-1-ol]
102	36.8	–	CN1CCN(c2nc(NCc3nc4c(OC(F)(F)F)cccc4[nH]3)n3ncc(Br)c3n2)CC1 [Example 376, 8-bromo-2-(4-methylpiperazin-1-yl)-N-{[4-(trifluoromethoxy)-1H-benzimidazol-2-yl]methyl}pyrazolo[1,5-a][1,3,5]triazin-4-amine]
118	70.2	–	CN(c1nc(NCc2nc3ccccc3[nH]2)n2ncc(Br)c2n1)[C@H]1C[C@H](O)C1 [Example 365, trans-3-[(4-{[(1H-benzimidazol-2-yl)methyl]amino}-8-bromopyrazolo[1,5-a][1,3,5]triazin-2-yl)(methyl)amino]cyclobutan-1-ol]

Second part, the compound before the results:

Compound	IC50 [1] [nM]	IC50 [2] [nM]	IC50 [3] [nM]
Clc1cc2nc(CNc3nc(N4CC5CCC(C4)N5)nc4c(Br)cnn34)[nH]c2cc1Cl [Example 334, 8-bromo-2-(3,8-diazabicyclo[3.2.1]octan-3-yl)-N-[(5,6-dichloro-1H-benzimidazol-2-yl)methyl]pyrazolo[1,5-a][1,3,5]triazin-4-amine]	2.18	1.72	4.02
CCNc1nc(NCc2nc(-c3ccc(C)cc3)c[nH]2)n2ncc(Br)c2n1 [Example 26, 8-bromo-N^2-ethyl-N^4-{[4-(4-methylphenyl)-1H-imidazol-2-yl]methyl}pyrazolo[1,5-a][1,3,5]triazine-2,4-diamine]	–	–	74.4
C[C@H]1CN(C)CCN1c1nc(NCc2nc3c(F)cccc3[nH]2)n2ncc(C(F)(F)F)c2n1 [Example 388, 2-[(2S)-2,4-dimethylpiperazin-1-yl]-N-[(4-fluoro-1H-benzimidazol-2-yl)methyl]-8-(trifluoromethyl)pyrazolo[1,5-a][1,3,5]triazin-4-amine]	30.2	22.5	40
Cc1cc2nc(CNc3nc(N4CCN(C)CC4)nc4c(Br)cnn34)[nH]c2cc1C [Example 342, 8-bromo-N-[(5,6-dimethyl-1H-benzimidazol-2-yl)methyl]-2-(4-methylpiperazin-1-yl)pyrazolo[1,5-a][1,3,5]triazin-4-amine]	1.97	1.52	1.27
Clc1cc2nc(CNc3nc(N4CCOCC4)nc4c(Br)cnn34)[nH]c2cc1Cl [Example 329, 8-bromo-N-[(5,6-dichloro-1H-benzimidazol-2-yl)methyl]-2-(morpholin-4-yl)pyrazolo[1,5-a][1,3,5]triazin-4-amine]	7.66	6.11	9.23
CC(C)c1cnn2c(NCc3ncc(-c4ccccc4)[nH]3)nc(N3CCN(C)CC3)nc12 [Example 31, 2-(4-methylpiperazin-1-yl)-N-[(5-phenyl-1H-imidazol-2-yl)methyl]-8-(propan-2-yl)pyrazolo[1,5-a][1,3,5]triazin-4-amine]	49.8	21	15
CN1C2CCC1CN(c1nc(NCc3nc4c(F)c(F)ccc4[nH]3)n3ncc(C(F)(F)F)c3n1)C2 [Example 356, N-[(4,5-difluoro-1H-benzimidazol-2-yl)methyl]-2-(8-methyl-3,8-diazabicyclo[3.2.1]octan-3-yl)-8-(trifluoromethyl)pyrazolo[1,5-a][1,3,5]triazin-4-amine]	5.25	2.1	5.05
CC(C)c1cnn2c(NCc3ncc(-c4ccccc4)[nH]3)nc(N3CCOCC3)nc12 [Example 30, 2-(morpholin-4-yl)-N-[(5-phenyl-1H-imidazol-2-yl)methyl]-8-(propan-2-yl)pyrazolo[1,5-a][1,3,5]triazin-4-amine]	–	–	28.5
CN(c1nc(NCc2nc3ccccc3[nH]2)n2ncc(Br)c2n1)[C@H]1C[C@@H](O)C1 [Example 364, cis-3-[(4-{[(1H-benzimidazol-2-yl)methyl]amino}-8-bromopyrazolo[1,5-a][1,3,5]triazin-2-yl)(methyl)amino]cyclobutan-1-ol]	41.3	–	9.75
FC(F)(F)Oc1cccc2[nH]c(CNc3nc(N4C[C@H]5CC[C@@H](C4)N5)nc4c(Br)cnn34)nc12 [Example 381, 8-bromo-2-[(1R,5S)-3,8-diazabicyclo[3.2.1]octan-3-yl]-N-{[4-(trifluoromethoxy)-1H-benzimidazol-2-yl]methyl}pyrazolo[1,5-a][1,3,5]triazin-4-amine]	43.5	30.8	–
CC[C@H](COC)Nc1nc(NCc2nc3ccccc3[nH]2)n2ncc(Br)c2n1 [Example 369, N4-[(1H-benzimidazol-2-yl)methyl]-8-bromo-N2-[(2R)-1-methoxybutan-2-yl]pyrazolo[1,5-a][1,3,5]triazine-2,4-diamine]	297	140	–
